Test results from patent US9815878B2, “Use of PEDF-derived polypeptides for preventing and/or ameliorating skin aging” (MacKay Memorial Hospital, priority 2012, dated 2017).

What was measured:
[1] = tested on: primary mouse dermal fibroblasts; test: Dermal fibroblast proliferation in vitro, BrdU labeling assay; type: cell-based, C57BL/6 mouse; conditions: 24 hours; for BrdU/Vimentin Labeling Index (%): 50 nM peptide in 1% FBS medium, BrdU 2 hours
Method: (§1) Full-thickness skin tissue was obtained from the dorsum of C57BL/6 mouse. The subcutaneous tissue was carefully dissected from the skin and washed three times in sterile phosphate-buffered saline (PBS). The tissue was then cut into small pieces (1-2 mm^3). After being digested with 0.1% dispase at 4° C. overnight, the epidermal layers were removed, and the remaining dermal parts were further digested with 0.1% collagenase I at 37° C. for another 4 hours. The digested cells were then collected by centrifugation (400 g for 5 minutes) and resuspended in high-glucose DMEM supplemented with 10% FBS, 2 mM L-glutamine, and 1% penicillin-streptomycin antibiotic mixture. Cells were seeded onto tissue-culture plates (Falcon Labware; NJ, USA) at 1×10^3 cells/cm^2 and maintained at 37° C. with 5% CO2. After 24 hours, the medium was discarded to remove residual non-adherent cells, and cell culture was replenished with a fresh medium. For passage, near-confluent cells were harvested with 0.25% trypsin/EDTA.
After fixing with 4% paraformaldehyde, cells were exposed to cold methanol for 2 minutes, and then treated with 1 N HCl at room temperature for 1 hour before performing immunofluorescence staining.
(§2) BrdU-labeled DNA was detected by polyclonal anti-BrdU antibody and rhodamine-conjugated donkey anti-rabbit IgG. Nuclei were counterstained with Hoechst 33258 (blue).
Primary mouse dermal fibroblasts were isolated and cultured as described in the “Materials and Methods” section. The dermal fibroblast at passage 2 were seeded at gelatin-coated slide in a 6-well plate at a density of 2×10^5 cells per well and cultured in growth medium (DMEM 10% FBS) for 24 hours before being replaced by a basal growth medium with 1% FBS only (control group) or with 1% FBS plus an additional 50 nM of PEDF-derived peptide (i.e., 29-mer, 24-mer, 20-mer, 18-mer, Mo 29-mer, or Mo 20-mer) for 24 hours. For BrdU labeling assay, BrdU (final concentration, 10 μM) was added to the culture for 2 hours. The level of BrdU- and vimentin-double positive cells was expressed as the percentage of BrdU- and vimentin-double positive cells per total vimentin-positive cells (the BrdU/Vimentin Labeling Index), and the results were summarized in Table 2.

dermal fibroblasts = test: Dermal fibroblast proliferation in photo damaged (UVB irradiated) skin in vivo, BrdU/vimentin staining; set-up: species or system nude mice (BALB/cAnN.Cg-Foxn1nu/CrlNarl); conditions: for BrdU/Vimentin Labeling Index (%): after 8-week UVB, ointment plus microneedle twice a week for 2 weeks
Method: For animal study, BrdU was reconstituted in DMSO as stock (80 mM). 10 μl of BrdU stock mixed with 90 μl of PBS was intraperitoneally injected into mouse at 16 hours prior to euthanasia. Formalin-fixed, paraffin-embedded skin specimens were deparaffinized in xylene and rehydrated in a graded series of ethanol. The specimens were then exposed to 1 N HCl at room temperature for 1 hour for subsequent immunofluorescence study.
as §2
Six-week-old female nude mice (BALB/cAnN.Cg-Foxn1nu/CrlNarl) were irradiated with ultraviolet B (UVB) on the back 5 times a week for an eight-week period using a bank of five UVB lamps (model XL-1000B, Spectrolinker™ apparatus; emission peak: 312 nm), placed about 20 cm above the backs of the animals. During the UVB exposure, the mice were allowed to move freely within the cage. The irradiation intensity represented as the minimal erythe al dose (MED) was set at 1 MED during the first 2 weeks (60 mJ/cm^2), and was progressively elevated to 2 MED (120 mJ/cm^2) in the 3rd-4th week, to 3 MED (180 mJ/cm^2) in the 5th-6th week, and to 4 MED (240 mJ/cm^2) during the 7th-8th weeks of the experiment. After the 8-week UVB exposure, animals developed noticeable wrinkles and were subsequently randomly divided into the following 4 groups, with 3 mice in each group. In the UVB/vehicle, UVB/29-mer, UVB/20-mer, and UVB/18-mer groups, 350 μl of ointment (containing DMSO, 29-mer, 20-mer or 18-mer PEDF) was applied to the dorsal skin and then transdermal delivery was achieved by punching the ointment treated skin with the microneedle patch. Also, mice that were not subjected to UVB radiation were used as control (Normal). The ointment/microneedle treatment was given twice a week for 2 weeks. Mice were intraperitoneally given BrdU and euthanized at 16 hours after the last treatment. Skin sections were stained for vimentin and BrdU. The level of BrdU- and vimentin-double positive cells was expressed as the percentage of BrdU- and vimentin-double positive cells per total vimentin-positive cells (the BrdU/Vimentin Labeling Index).

MMP-13 = test: UVB-induced MMP-13 mRNA expression in primary mouse dermal fibroblasts, RT-PCR; type: cell-based; conditions: for MMP-13 Expression Level (%): mRNA, Vehicle/UVB set to 100%; for effect on UVB-induced upregulation of MMP-13: cells pretreated with peptide
Method: as §1
The total RNA was extracted from cells using the TRIzol (Invitrogen) and treated with RNase-free DNase I (Qiagen, Santa Clarita, Calif.) to remove genomic DNA and then purified with an RNA purification kit (Dynabeads; Invitrogen). 1 μg of total RNA retrieved from primary dermal fibroblast was reverse-transcribed into cDNA by 200 units of expand Reverse-Transcriptase (Roche, Mannheim, Germany) in 20 μl of reaction buffer containing 0.25 μg of random primers and 0.8 mM dNTPs at 42° C. for 1 hour. 2 μl of the cDNA was used for the PCR reaction as templates. PCR was performed in a 30 μl volume containing 15 μl of EconoTaq® PLUS GREEN 2× Master Mix (Lucigen® Corp.), 1 μM of each primer and 2 μl of template DNA. cDNA was synthesized in an 18-22 cycle amplification reaction (denaturation, 20 s, 94° C.; annealing, 30 s, 57° C.; and polymerization, 40 s, 72° C.). The number of cycles for the primer set was chosen to be in the linear range of amplification. The sequences of specific PCR primers were mouse MMP-13 (accession number: NM_008607) sense, […] (SEQ ID NO: 12); antisense, […] (SEQ ID NO: 13); PCR product: 201 bp; and mouse glyceraldehyde 3-phosphate dehydrogenase (GAPDH; accession number: M32599) sense, […] (SEQ ID NO: 14); and anti-sense, […] (SEQ ID NO: 15); PCR product: 223 bp.). The PCR products were electrophoresed in a 2% agarose gel containing ethidium bromide and visualized by UV illumination. The intensities of the PCR products were quantified densitometrically using a FUJI LAS-3000 system and Multi Gauge Ver. 1.01 software (Fujifilm, Tokyo, Japan).
Primary mouse dermal fibroblasts in passage 2 of monolayer cultures were incubated with 1% FBS-DMEM supplemented with or without 100 nM PEDF peptide for 24 hours, and then subjected to UVB irradiation as described above. After UVB irradiation, PBS was replaced with 1% FBS-DMEM with or without PEDF peptide for further 24 hours, and then cellular total RNAs were extracted for subsequent RT-PCR analysis. The expression level of MMP-13 mRNA was normalized with the expression level in the Vehicle/UVB group (set to 100%), and quantitative results are summarized in Table 7.

[2] = after UVB exposure, transdermal delivery
[3] = 100 nM peptide 24 h before and 24 h after UVB 15 mJ/cm^2

| Substance | BrdU/Vimentin Labeling Index (%) [1] [%] | proliferation relative to control medium ([1]; 50 nM peptide) | BrdU/Vimentin Labeling Index (%) (dermal fibroblasts) | proliferative activity of dermal fibroblasts relative to UVB/vehicle group (dermal fibroblasts; [2]) | MMP-13 Expression Level (%) (MMP-13; [3]) | MMP-13 Expression Level (%) (MMP-13; 100 nM peptide, no UVB irradiation) | effect on UVB-induced upregulation of MMP-13 (MMP-13) | effect on dermal fibroblast proliferation in vitro ([1]; 50 nM peptide) | effect on dermal fibroblast proliferation in UVB-damaged skin (dermal fibroblasts; [2]) |
| --- | --- | --- | --- | --- | --- | --- | --- | --- | --- |
| Ac-SLGAEQRTESIIHRALYYDLISSPDIHGT-NH2 [29-mer] | 9.6 ± 1.6 | about 5 fold | 5.2 ± 1.9 | about 2.5 fold | 15.8 ± 1.8 | 4.8 ± 0.63 | substantially reduced | – | – |
| EQRTESIIHRALYYDLIS [18-mer] | 2.1 ± 0.61 | – | 2.0 ± 0.8 | – | 103.3 ± 7.8 | – | unable to reduce the UVB-induced upregulation | failed to elicit such effect | failed to promote the dermal fibroblast proliferation |
| SLGAEQRTESIIHRALYYDL [20-mer, synthetic peptide corresponding to residues 93-112 of human PEDF] | 10.4 ± 2.3 | about 5 fold | 5.9 ± 1.3 | about 2.5 fold | 15.8 ± 3.3 | – | substantially reduced | – | – |
